According to US6342225B1, “Pharmaceutical active conjugates” (Deutshces Wollforschungsinstitut, priority 1993, dated 2002):
One block for each substance: values may come before it.

Experiments:
[1] = biological target: T1, thyroxine binding globulin (TBG) (Homo sapiens, UniProt P05543); assay: optical biosensor IAsys kinetic binding to immobilized TBG; conditions: control, 500 μg/ml
T1 sequence (P05543 21-415): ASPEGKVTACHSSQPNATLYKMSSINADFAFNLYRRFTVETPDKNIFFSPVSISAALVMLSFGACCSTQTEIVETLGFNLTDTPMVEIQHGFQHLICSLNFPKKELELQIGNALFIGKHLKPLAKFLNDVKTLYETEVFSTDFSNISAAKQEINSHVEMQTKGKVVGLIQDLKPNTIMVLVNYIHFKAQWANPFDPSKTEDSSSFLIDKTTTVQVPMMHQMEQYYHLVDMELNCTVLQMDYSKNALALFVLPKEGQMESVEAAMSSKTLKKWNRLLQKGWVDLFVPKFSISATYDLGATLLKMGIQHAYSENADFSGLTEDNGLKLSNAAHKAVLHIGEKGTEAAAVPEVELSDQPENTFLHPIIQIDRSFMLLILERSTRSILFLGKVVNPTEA

[2] = system: hepatic glucose output and peripheral uptake; conditions: British Diabetic Association conference 1989; cited from earlier work
[3] = system: glucose production (Ra) and glucose disposal (Rd); assay: glucose turnover during infusion with D-3H-3-glucose in anaesthetized beagles, euglycaemia maintained; assay type: in vivo; conditions: mean±SEM

association to immobilized TBG [1]: association cannot be observed
Substance: native insulin: native insulin injected at 500 μg/ml as control in the biosensor study

Substance: proinsulin: the zymogen which is cleaved to form the active hormone insulin
hepatoselectivity (effect on hepatic glucose output versus peripheral uptake and utilisation) [2]: shows this hepatoslectivity to a smaller degree

Substance: insulin
AUC for Ra (glucose production), area between basal and subsequent values against time [3]: -431 ± 121 mg/kg | AUC for Rd (glucose disposal), area between basal and subsequent values against time [3]: 1142 ± 160 mg/kg
